Data taken from US8987481B1, “Method for isolation of bulk anthocyanidins and other bioactives” (priority 2013, dated 2015).

Test: Storage stability of isolated anthocyanidins
Assay type: physicochemical
Experimental: The isolated anthos are stable when stored in amber bottles under argon at −20° C. […] However, when bound to cellulose, these compounds can be stabilized for a long period of time. Edible cellulose formulations that are used routinely in beverage and food industries are commercially available. Therefore, anthos isolated by the method described here can be readily stabilized with edible cellulose or pectin or other edible materials and used in beverages and foods to provide natural colors, as well as used as nutraceuticals and provide health benefits due to known antioxidant, antiproliferative and anticancer activities of anthos.

Substance: anthocyanins
- stability in solution form: highly unstable
